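Five compound concentrations were applied to cells in 96-well plates for 48 hours; endpoints were derived by simple linear interpolation of the resulting dose-response curve. Here, GI50 denotes the concentration required for 50% inhibition of growth.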 Active and inactive are the calls of the source. Rule as the data show it: active = GI50 up to about 1.1 µM and inactive = higher.
Key:
Assay in all cases: NCI tumour cell line growth inhibition, 48 h
NCI-H522 = test system: NCI-H522
SNB-78 = test system: SNB-78
OVCAR-8 = test system: OVCAR-8
DMS-273 = test system: DMS-273
SK-MEL-2 = test system: SK-MEL-2
NCI-H226 = test system: NCI-H226
Malme-3M = test system: Malme-3M
LOX IMVI = test system: LOX IMVI
DLD-1 = test system: DLD-1
UACC-257 = test system: UACC-257
HL-60 = test system: HL-60
MCF7 = test system: MCF7
OVCAR-3 = test system: OVCAR-3

Structure (SMILES) | GI50 (NCI-H522) | GI50 (SNB-78) | GI50 (OVCAR-8) | GI50 (DMS-273) | GI50 (SK-MEL-2) | GI50 (NCI-H226) | GI50 (Malme-3M) | GI50 (LOX IMVI) | GI50 (DLD-1) | GI50 (UACC-257) | GI50 (HL-60) | GI50 (MCF7) | GI50 (OVCAR-3)
O=C(Nc1ccc(C2=NCCN2)cc1)c1cncc(C(=O)Nc2ccc(C3=NCCN3)cc2)c1 | > 100 µM (inactive) | > 100 µM (inactive) | > 100 µM (inactive) | > 100 µM (inactive) | > 100 µM (inactive) | > 94.6 µM (inactive) | > 100 µM (inactive) | > 100 µM (inactive) | > 100 µM (inactive) | > 100 µM (inactive) | > 100 µM (inactive) | > 100 µM (inactive) | > 100 µM (inactive)
CCC1CN2CCC1CC2 (centres undefined) | > 100 µM (inactive) | > 100 µM (inactive) | > 100 µM (inactive) | > 100 µM (inactive) | > 100 µM (inactive) | > 100 µM (inactive) | > 100 µM (inactive) | > 100 µM (inactive) | > 100 µM (inactive) | > 91.4 µM (inactive) | > 100 µM (inactive) | > 100 µM (inactive) | > 100 µM (inactive)
COC(=O)[C@@H]1c2cc3c(c(O)c2[C@@H](OC)C[C@@]1(C)O)C(=O)c1c(O)cc2c(c1C3=O)OC1O[C@@]2(C)[C@H](O)[C@@H](N(C)C)[C@@H]1O | 0.445 µM (active) | 0.552 µM (active) | 0.234 µM (active) | 0.118 µM (active) | 0.28 µM (active) | 0.301 µM (active) | 0.506 µM (active) |  | 1.86 µM (inactive) | 0.337 µM (active) | 0.142 µM (active) | 2.72 µM (inactive) | 0.361 µM (active)
Cn1c2ccccc2c(=O)c2c(O)cc3c(c21)C=CC(C)(C)O3 [NORACRONYCINE] | > 25 µM (inactive) | > 25 µM (inactive) | 2.5 µM (inactive) | > 25 µM (inactive) | > 25 µM (inactive) | > 25 µM (inactive) | > 25 µM (inactive) | > 25 µM (inactive) | 19.4 µM (inactive) | > 25 µM (inactive) | > 11.1 µM (inactive) | > 25 µM (inactive) | > 25 µM (inactive)
O=C(O)CCCCCCCCC(=O)O [SEBACIC ACID] | > 500 µM (inactive) | > 500 µM (inactive) | 108 µM (inactive) | 50 µM (inactive) | > 500 µM (inactive) | > 500 µM (inactive) | > 500 µM (inactive) | > 500 µM (inactive) | 108 µM (inactive) | 108 µM (inactive) | 316 µM (inactive) | > 377 µM (inactive) | 79.3 µM (inactive)

Reference: ChEMBL document CHEMBL1201862, “PubChem BioAssay data set” (2004)
